Earlier results on one compound are cited in patent publication US11318148B2, “Preservative-free treprostinil devices” (SteadyMed, Ltd., priority 2014, dated 2022).

The conditions of data set [1]: in vivo.
The conditions of data set [2]: has to be kept on ice during administration.

With `CCCCC[C@H](O)/C=C/[C@@H]1[C@H]2C/C(=C/CCCC(=O)O)O[C@H]2C[C@H]1O` [Flolan], the half-life in data set [1] was 3 to 5 min. For the same compound, in data set [2], the “stability at room temperature” value was “unstable at room temperature”.
